# Test results from ChEMBL document CHEMBL1143870, “A new insight into solid-state conformation of macrolide antibiotics” (Bioorg Med Chem, 2008).
# What was measured:
# [1] = Elimination half life in human at 500 mg, po administered as single dose; format: ADME, organism-based; settings: in vivo
# [2] = Tmax in human at 500 mg, po administered as single dose; format: ADME, organism-based; settings: in vivo
# [3] = Lipophilicity, log D at pH 8.0; format: physicochemical; settings: buffer
# Homo sapiens [4] = test: AUC in human at 500 mg, po administered as single dose; format: ADME, organism-based, Plasma; settings: in vivo
# [5] = Cmax in human at 500 mg, po administered as single dose; format: ADME, organism-based; set-up: dose 500 mg, route oral; settings: in vivo
# [6] = Oral bioavailability in human at 500 mg administered as single dose; format: ADME, organism-based; settings: in vivo
# [7] = Oral bioavailability in human at 150 mg administered as single dose; format: ADME, organism-based; settings: in vivo
# [8] = Cmax in human at 150 mg, po administered as single dose; format: ADME, organism-based; set-up: dose 150 mg, route oral; settings: in vivo
# Homo sapiens [9] = test: AUC in human at 150 mg, po administered as single dose; format: ADME, organism-based, Plasma; settings: in vivo
# [10] = Tmax in human at 150 mg, po administered as single dose; format: ADME, organism-based; settings: in vivo
# [11] = Elimination half life in human at 150 mg, po administered as single dose; format: ADME, organism-based; settings: in vivo
half-life [1] [min],Tmax [2] [h],logD [3],AUC (Homo sapiens [4]) [mg·h/L],Cmax [5] [ng/mL],bioavailability [6] [%],bioavailability [7] [%],Cmax [8] [ng/mL],AUC (Homo sapiens [9]) [mg·h/L],Tmax [10] [h],half-life [11] [min],SMILES
294,2,3.9,18.9,2410,55,,,,,,CC[C@H]1OC(=O)[C@H](C)[C@@H](O[C@H]2C[C@@](C)(OC)[C@@H](O)[C@H](C)O2)[C@H](C)[C@@H](O[C@@H]2O[C@H](C)C[C@H](N(C)C)[C@H]2O)[C@](C)(OC)C[C@@H](C)C(=O)[C@H](C)[C@@H](O)[C@]1(C)O [CLARITHROMYCIN]
90,1,,5.8,1900,18,,,,,,CC[C@H]1OC(=O)[C@H](C)[C@@H](O[C@H]2C[C@](C)(OC)[C@H](O)[C@@H](C)O2)[C@H](C)[C@@H](O[C@@H]2O[C@@H](C)C[C@@H](N(C)C)[C@@H]2O)[C@](C)(O)C[C@@H](C)C(=O)[C@H](C)[C@@H](O)[C@]1(C)O [ERYTHROMYCIN A DIHYDRATE]
,,2.5,,,,72,7900,81,2.2,630,CC[C@H]1OC(=O)[C@H](C)[C@@H](O[C@H]2C[C@@](C)(OC)[C@@H](O)[C@H](C)O2)[C@H](C)[C@@H](O[C@@H]2O[C@H](C)C[C@H](N(C)C)[C@H]2O)[C@](C)(O)C[C@@H](C)/C(=N\OCOCCOC)[C@H](C)[C@@H](O)[C@]1(C)O [ROXITHROMYCIN]
